The nature of this data set: Grade ≥3 toxicity. The class given is in vivo, human. The settings on record: standard dose; study period.

The structures appear in SMILES notation.

`Cc1ccc(Nc2nccc(N(C)c3ccc4c(C)n(C)nc4c3)n2)cc1S(N)(=O)=O` [Pazopanib]: the “patients with grade ≥3 adverse events, wildtype patients” value came to 29%.

The record behind these values is article PMC10386914 (Clinical Pharmacokinetics, 2023).
